Reference: patent US11433068B2, “Treatment of cancers having alterations within the SWI/SNF chromatin remodeling complex” (THE GENERAL HOSPITAL CORPORATION, priority 2016, dated 2022)

Key:
H3K9 = assay: Histone western blot of cells treated with G9a inhibitors (FIGS. 6A, 6B); assay type: cell-based; conditions: UACC257 cell line
Description: (§1) The G9a and EZH2 methyltransferases are known to target H3K9 and H3K27, respectively.

[1] = system: ARID2-deficient melanomas UACC62 cells; assay: Quantification of cell number using crystal violet staining (FIGS. 4A, 4B); assay type: cell-based
[2] = system: melanoma cell and melanocyte; assay: Viability by cell-titer Glo assay (FIGS. 14A, 14B); assay type: cell-based; conditions: varying amounts; melanoma cells and melanocytes
Experimental: FIGS. 14A and 14B show melanoma cell and melanocyte are sensitive to G9a inhibitors. Indicated cell types were treated with varying amounts of (FIG. 14A) UNC0638 or (FIG. 14B) BIX01294 and viability was measured by cell-titer Glo assay.

ARID2-deficient cells = assay: Selective susceptibility of ARID2-knockdown melanoma lines to G9a inhibitors (FIG. 3); assay type: cell-based; conditions: ARID2-knockdown of two different melanoma lines
[3] = system: melanoma cell lines (n=22); assay: LD50 of melanoma cell lines versus ARID2 mutational status (FIGS. 5A, 5B); assay type: cell-based; conditions: 22 melanoma cell lines; ARID2 mutant vs other lines
Description: LD50 value of each melanoma cell line plotted for the two G9a inhibitors UNC0638 and BIX-01294. (n=22). ARID2 mutant cell lines indicated in closed circles.

[4] = system: ARID2-deficient cell lines; assay: Combination therapy heatmaps, cell viability, isogenically matched engineered melanoma lines (FIG. 8); assay type: cell-based; conditions: ARID2-deficient vs matched lines
Description: FIG. 8 summarizes the combination therapy on isogenically matched engineered ARID-deficient melanoma cell lines. Heatmaps showing cell viability after treatment with the G9a inhibitor BIX-01294 in combination with other small molecule inhibitors (bromodomain inhibitor JQ1 and BRAF inhibitor PLX).

[5] = system: ARID-deficient LOX-IMVI cell line; assay: Combination therapy heatmaps, cell viability, endogenous ARID-deficient melanoma lines (FIG. 9); assay type: cell-based; conditions: G9a inhibitor in combination with HDAC inhibitor SAHA; LOX-IMVI compared to ARID wildtype A375
Description: FIG. 9 summarizes the combination therapy on endogenous ARID-deficient melanoma cell lines.

H3K27 = assay: Histone western blot of cells treated with EZH2 inhibitors (FIGS. 6A, 6B); assay type: cell-based; conditions: UACC257 cell line
Description: as §1

[6] = system: UACC257 human melanoma cells with ARID2 deficiency; assay: Dose response of melanoma cells to the G9a inhibitor (FIG. 2); assay type: cell-based; conditions: UACC257 shARID2 knockdown vs isogenically matched control (shLuc) cells
Experimental: ARID2 deficiency is simulated the cells using an RNAi shARID2 to knockdown expression of ARID2. For control, the same cell lines are treated with a control RNAi shLuc instead of shARID2.

[7] = system: G9a-amplified melanoma cell line, K029; assay: Tumor growth of subcutaneously inoculated K029 cells in SCID mice (FIG. 16); assay type: in vivo; conditions: K029 subcutaneous in SCID mice; 2.5 mg/kg daily ip from 8 days after inoculation
Experimental: G9a-amplified melanoma cell line, K029, was subcutaneously inoculated on SCID mice (5×10^6 cells/[…] PBS). Vehicle (10% DMSO/PBS) or UNC0642 (2.5 mg/kg) was daily administrated by ip injection 8 days after K029 inoculation.

[8] = BIX-01294 in combination with bromodomain inhibitor JQ1

Compound	methylation marks at H3K9 (histone western blot) (H3K9)	cell number (crystal violet staining) [1]	viability (cell-titer Glo) [2]	sensitivity of ARID2-knockdown cells to G9a inhibitors (ARID2-deficient cells)	sensitivity (LD50) versus ARID2 mutation [3]	drug synergy (cell viability) [4, 8]	drug synergy (cell viability) [5]	other results
COc1cc2nc(N3CCCN(C)CC3)nc(NC3CCN(Cc4ccccc4)CC3)c2cc1OC [BIX-01294]	selective and specific decrease in the methylation marks	selective vulnerability	sensitive	sensitive	ARID2 mutation predicts the sensitivity	selectively enhanced	selectively enhanced	drug synergy (cell viability) ([4]; BIX-01294 in combination with BRAF inhibitor PLX): selectively enhanced
CC[C@H](C)n1cc(C)c2c(C(=O)NCc3c(C)cc(C)[nH]c3=O)cc(-c3ccc(N4CCNCC4)nc3)cc21 [GSK126]	–	–	–	–	–	–	–	methylation marks at H3K27 (histone western blot) (H3K27): selective and specific decrease in the methylation marks
Cc1sc2c(c1C)C(c1ccc(Cl)cc1)=N[C@@H](CC(=O)OC(C)(C)C)c1nnc(C)n1-2 [JQ1]	–	–	–	–	–	selectively enhanced	–	–
O=C(CCCCCCC(=O)Nc1ccccc1)NO [SAHA, suberoylanilide hydroxamic acid]	–	–	–	–	–	–	selectively enhanced	–
COc1cc2c(NC3CCN(C(C)C)CC3)nc(C3CCCCC3)nc2cc1OCCCN1CCCC1 [UNC0638]	selective and specific decrease in the methylation marks	selective vulnerability	sensitive	sensitive	ARID2 mutation predicts the sensitivity	–	selectively enhanced	susceptibility to the G9a inhibitor (dose response) [6]: more susceptible
COc1cc2c(NC3CCN(C(C)C)CC3)nc(N3CCC(F)(F)CC3)nc2cc1OCCCN1CCCC1 [UNC0642]	–	–	–	–	–	–	–	tumor growth [7]: effectively suppress tumor growth
